Test results taken from ChEMBL document CHEMBL1201861, “Genomics of Drug Sensitity in Cancer screening data, Wellcome Trust Sanger Institute”.
pIC50: −log10 of the molar value.

Assays:
Test in all cases: cells
[1] = tested on: D283 Med; type: functional, cell-based, Homo sapiens; details: Homo sapiens, D283 Med
Description: SANGER: Inhibition of human D-283MED cell growth in a cell viability assay.

[2] = tested on: Daoy; type: functional, cell-based, Homo sapiens; details: Homo sapiens, Daoy;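 also: daoy cell growth inhibition, read out as cell viability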
Description: SANGER: Inhibition of human Daoy cell growth in a cell viability assay.

[3] = tested on: EW-18; type: functional, cell-based; details: Homo sapiens;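 also: growth inhibition of EW-18 cells, read out by a cell viability assay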
Description: SANGER: Inhibition of human EW-18 cell growth in a cell viability assay.

[4] = tested on: GAK; type: functional, cell-based, Homo sapiens; details: Homo sapiens, GAK;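 also: cell growth inhibition read out by a cell viability assay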
Description: SANGER: Inhibition of human GAK cell growth in a cell viability assay.

[5] = tested on: HCC2157; type: functional, cell-based; details: Homo sapiens;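 also: growth inhibition of the cancer cell line, read out as cell viability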
Description: SANGER: Inhibition of human HCC2157 cell growth in a cell viability assay.

[6] = tested on: HuP-T3; type: functional, cell-based, Homo sapiens; details: Homo sapiens, HuP-T3;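 also: HuP-T3 cell growth inhibition, read out with a cell viability assay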
Description: SANGER: Inhibition of human HuP-T3 cell growth in a cell viability assay.

[7] = tested on: JVM-2; type: functional, cell-based; details: Homo sapiens;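 also: growth inhibition of JVM-2 cells determined by a cell viability assay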
Description: SANGER: Inhibition of human JVM-2 cell growth in a cell viability assay.

[8] = tested on: KARPAS-45; type: functional, cell-based; details: Homo sapiens;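 also: inhibition of cell line growth, read out through a viability assay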
Description: SANGER: Inhibition of human KARPAS-45 cell growth in a cell viability assay.

[9] = tested on: KG-1; type: functional, cell-based; details: Homo sapiens;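 also: growth inhibition of KG-1 cells, read out by a cell viability assay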
Description: SANGER: Inhibition of human KG-1 cell growth in a cell viability assay.

[10] = tested on: KGN; type: functional, cell-based, Homo sapiens; details: Homo sapiens, KGN;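 also: growth inhibition of KGN cells, read out with a cell viability assay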
Description: SANGER: Inhibition of human KGN cell growth in a cell viability assay.

[11] = tested on: MCF7; type: functional, cell-based, Homo sapiens; details: Homo sapiens, MCF7;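 also: growth inhibition of human MCF7 cells, read out with a cell viability assay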
Description: SANGER: Inhibition of human MCF7 cell growth in a cell viability assay.

[12] = tested on: MDA-MB-231; type: functional, cell-based, Homo sapiens; details: Homo sapiens, MDA-MB-231
Description: SANGER: Inhibition of human MDA-MB-231 cell growth in a cell viability assay.

[13] = tested on: MDA-MB-453; type: functional, cell-based, Homo sapiens; details: Homo sapiens, MDA-MB-453
Description: SANGER: Inhibition of human MDA-MB-453 cell growth in a cell viability assay.

[14] = tested on: MLMA; type: functional, cell-based, Homo sapiens; details: Homo sapiens, MLMA;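 also: growth inhibition of MLMA cells (human), determined through a cell viability readout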
Description: SANGER: Inhibition of human MLMA cell growth in a cell viability assay.

[15] = tested on: Mo; type: functional, cell-based; details: Homo sapiens
Description: SANGER: Inhibition of human Mo-T cell growth in a cell viability assay.

[16] = tested on: NCI-H1304; type: functional, cell-based; details: Homo sapiens;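 also: growth inhibition of the cancer cell line, measured in a cell viability assay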
Description: SANGER: Inhibition of human NCI-H1304 cell growth in a cell viability assay.

[17] = tested on: NCI-H1623; type: functional, cell-based, Homo sapiens; details: Homo sapiens, NCI-H1623;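 also: cell viability assay used as the read-out for growth inhibition of NCI-H1623 cells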
Description: SANGER: Inhibition of human NCI-H1623 cell growth in a cell viability assay.

[18] = tested on: NCI-H1651; type: functional, cell-based, Homo sapiens; details: Homo sapiens, NCI-H1651;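 also: Read-out is a cell viability assay, with IC50 expressing inhibition of NCI-H1651 cell growth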
Description: SANGER: Inhibition of human NCI-H1651 cell growth in a cell viability assay.

[19] = tested on: NCI-H209; type: functional, cell-based; details: Homo sapiens;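 also: growth inhibition of human NCI-H209 cells, measured by a cell viability assay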
Description: SANGER: Inhibition of human NCI-H209 cell growth in a cell viability assay.

[20] = tested on: NCI-H292; type: functional, cell-based, Homo sapiens; details: Homo sapiens, NCI-H292;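 also: growth inhibition of NCI-H292 cells, read out with a cell viability assay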
Description: SANGER: Inhibition of human NCI-H292 cell growth in a cell viability assay.

[21] = tested on: NCI-H747; type: functional, cell-based; details: Homo sapiens;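 also: growth inhibition of human NCI-H747 cells, read out by a cell viability assay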
Description: SANGER: Inhibition of human NCI-H747 cell growth in a cell viability assay.

[22] = tested on: NCI-H82; type: functional, cell-based; details: Homo sapiens;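 also: growth inhibition of NCI-H82 cells, measured with a cell viability readout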
Description: SANGER: Inhibition of human NCI-H82 cell growth in a cell viability assay.

[23] = tested on: NMC-G1; type: functional, cell-based, Homo sapiens; details: Homo sapiens, NMC-G1;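 also: growth inhibition of the NMC-G1 cell line, measured with a cell viability read-out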
Description: SANGER: Inhibition of human NMC-G1 cell growth in a cell viability assay.

[24] = tested on: PFSK-1; type: functional, cell-based, Homo sapiens; details: Homo sapiens, PFSK-1;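 also: cell viability assay measuring how strongly compounds suppress growth of human PFSK-1 cells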
Description: SANGER: Inhibition of human PFSK-1 cell growth in a cell viability assay.

[25] = tested on: RERF-LC-MS; type: functional, cell-based, Homo sapiens; details: Homo sapiens, RERF-LC-MS;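 also: growth inhibition of human RERF-LC-MS cells, read out by a cell viability assay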
Description: SANGER: Inhibition of human RERF-LC-MS cell growth in a cell viability assay.

[26] = tested on: RH-1; type: functional, cell-based, Homo sapiens; details: Homo sapiens, RH-1;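 also: growth inhibition of human RH-1 cells, read out with a cell viability assay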
Description: SANGER: Inhibition of human RH-1 cell growth in a cell viability assay.

[27] = tested on: RVH-421; type: functional, cell-based, Homo sapiens; details: Homo sapiens, RVH-421
Description: SANGER: Inhibition of human RVH-421 cell growth in a cell viability assay.

[28] = tested on: Ramos-2G6-4C10; type: functional, cell-based; details: Homo sapiens;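 also: growth inhibition of the cell line, measured by a cell viability read-out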
Description: SANGER: Inhibition of human Ramos-2G6-4C10 cell growth in a cell viability assay.

[29] = tested on: SF-126; type: functional, cell-based, Homo sapiens; details: Homo sapiens, SF-126;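 also: growth inhibition of human SF126 cells, read out with a cell viability assay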
Description: SANGER: Inhibition of human SF126 cell growth in a cell viability assay.

[30] = tested on: SK-MES-1; type: functional, cell-based, Homo sapiens; details: Homo sapiens, SK-MES-1;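 also: growth inhibition of human SK-MES-1 cells, read out with a cell viability assay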
Description: SANGER: Inhibition of human SK-MES-1 cell growth in a cell viability assay.

[31] = tested on: SKG-IIIa; type: functional, cell-based, Homo sapiens; details: Homo sapiens, SKG-IIIa;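 also: cell growth inhibition, read out with a cell viability assay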
Description: SANGER: Inhibition of human SKG-IIIa cell growth in a cell viability assay.

[32] = tested on: SN12C; type: functional, cell-based, Homo sapiens; details: Homo sapiens, SN12C;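 also: growth inhibition of human SN12C cells, measured by a cell viability assay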
Description: SANGER: Inhibition of human SN12C cell growth in a cell viability assay.

[33] = tested on: SNU-C2B; type: functional, cell-based, Homo sapiens; details: Homo sapiens, SNU-C2B;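 also: cell viability readout used to measure compound-driven suppression of SNU-C2B cell proliferation, IC50 marking half-maximal growth inhibition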
Description: SANGER: Inhibition of human SNU-C2B cell growth in a cell viability assay.

[34] = tested on: SW626; type: functional, cell-based, Homo sapiens; details: Homo sapiens, SW626;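 also: growth inhibition of SW626 cells, measured with a cell viability assay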
Description: SANGER: Inhibition of human SW626 cell growth in a cell viability assay.

[35] = tested on: SW756; type: functional, cell-based, Homo sapiens; details: Homo sapiens, SW756;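 also: growth inhibition of human SW756 cells, read out with a cell viability assay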
Description: SANGER: Inhibition of human SW756 cell growth in a cell viability assay.

[36] = tested on: CWR22R; type: functional, cell-based, Homo sapiens; details: Homo sapiens, 22Rv1;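 also: growth inhibition of 22Rv1 cells, read out with a cell viability assay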
Description: SANGER: Inhibition of human 22RV1 cell growth in a cell viability assay.

[37] = tested on: 639-V; type: functional, cell-based, Homo sapiens; details: Homo sapiens, 639-V;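 also: growth inhibition of 639-V cells, read out with a cell viability assay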
Description: SANGER: Inhibition of human 639-V cell growth in a cell viability assay.

[38] = tested on: 8505C; type: functional, cell-based, Homo sapiens; details: Homo sapiens, 8505C
Description: SANGER: Inhibition of human 8505C cell growth in a cell viability assay.

[39] = tested on: A2058; type: functional, cell-based; details: Homo sapiens;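 also: reduction of A2058 cell growth, read out with a viability assay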
Description: SANGER: Inhibition of human A2058 cell growth in a cell viability assay.

[40] = tested on: A673; type: functional, cell-based, Homo sapiens; details: Homo sapiens, A673;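 also: growth inhibition of human A673 cells, read out through a cell viability assay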
Description: SANGER: Inhibition of human A673 cell growth in a cell viability assay.

[41] = tested on: A704; type: functional, cell-based, Homo sapiens; details: Homo sapiens, A704;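 also: growth inhibition of human A704 cells, read out with a cell viability assay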
Description: SANGER: Inhibition of human A704 cell growth in a cell viability assay.

[42] = tested on: AM-38; type: functional, cell-based, Homo sapiens; details: Homo sapiens, AM-38;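 also: growth inhibition of AM-38 cells of human origin, read out by a cell viability assay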
Description: SANGER: Inhibition of human AM-38 cell growth in a cell viability assay.

[43] = tested on: AN3-CA; type: functional, cell-based; details: Homo sapiens;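 also: growth inhibition of human AN3-CA cells measured by a cell viability assay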
Description: SANGER: Inhibition of human AN3-CA cell growth in a cell viability assay.

[44] = tested on: Becker; type: functional, cell-based, Homo sapiens; details: Homo sapiens, Becker;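 also: growth inhibition of Becker cells, read out with a cell viability assay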
Description: SANGER: Inhibition of human Becker cell growth in a cell viability assay.

[45] = tested on: CAL-12T; type: functional, cell-based, Homo sapiens; details: Homo sapiens, CAL-12T;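 also: growth inhibition of human CAL-12T cells, read out with a cell viability assay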
Description: SANGER: Inhibition of human CAL-12T cell growth in a cell viability assay.

[46] = tested on: CAL-72; type: functional, cell-based, Homo sapiens; details: Homo sapiens, CAL-72;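 also: cell viability assay measuring inhibition of proliferation in the CAL-72 cell line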
Description: SANGER: Inhibition of human CAL-72 cell growth in a cell viability assay.

[47] = tested on: TE-12; type: functional, cell-based; details: Homo sapiens;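 also: growth inhibition of TE-12 cells, read out by a cell viability assay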
Description: SANGER: Inhibition of human TE-12 cell growth in a cell viability assay.

[48] = tested on: U-266; type: functional, cell-based; details: Homo sapiens
Description: SANGER: Inhibition of human U-266 cell growth in a cell viability assay.

[49] = tested on: D-336MG; type: functional, cell-based, Homo sapiens; details: Homo sapiens, D-336MG
Description: SANGER: Inhibition of human D-336MG cell growth in a cell viability assay.

[50] = tested on: MKN-45; type: functional, cell-based, Homo sapiens; details: Homo sapiens, MKN-45;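 also: growth inhibition of human MKN-45 cells, measured with a cell viability assay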
Description: SANGER: Inhibition of human MKN45 cell growth in a cell viability assay.

[51] = tested on: D-542MG; type: functional, cell-based, Homo sapiens; details: Homo sapiens, D-542MG
Description: SANGER: Inhibition of human D-542MG cell growth in a cell viability assay.

[52] = tested on: DMS-79; type: functional, cell-based; details: Homo sapiens;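 also: growth inhibition measured with a cell viability assay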
Description: SANGER: Inhibition of human DMS-79 cell growth in a cell viability assay.

[53] = tested on: HC-1; type: functional, cell-based; details: Homo sapiens;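 also: growth inhibition of HC-1 cells measured by a cell viability assay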
Description: SANGER: Inhibition of human HC-1 cell growth in a cell viability assay.

Measured: pIC50

COc1cc(F)c(F)c(Nc2ccc(I)cc2F)c1NS(=O)(=O)C1(CC(O)CO)CC1 (configuration not stated)
6.25: [4]
5.94: [8]
5.97: [45]
5.91: [35]
5.87: [30]
5.95: [12]
< 5.30: [1] | [2] | [5] | [6] | [7] | [9] | [11] | [13] | [14] | [15] | [16] | [18] | [19] | [22] | [23] | [24] | [26] | [28] | [29] | [31] | [32] | [33] | [36] | [37] | [40] | [42] | [43] | [44] | [46] | [47] | [48]
7.47: [27]
6.19: [20]
6.55: [34]
5.56: [3]
5.88: [25]
6.18: [21]
5.55: [10]
5.75: [17]
5.42: [39]
5.33: [41]
5.59: [38]

O=C1N=C(NCc2cccs2)S/C1=C\c1ccc2ncccc2c1
5.64: [37]
< 5.30: [1] | [49] | [2] | [3] | [4] | [5] | [6] | [7] | [8] | [9] | [10] | [11] | [12] | [13] | [50] | [14] | [15] | [16] | [17] | [18] | [19] | [20] | [21] | [22] | [23] | [24] | [25] | [26] | [27] | [28] | [29] | [30] | [31] | [32] | [33] | [34] | [35] | [36] | [38] | [39] | [40] | [41] | [42] | [43] | [44] | [45] | [46] | [47] | [48]

COc1ccc(-c2ccc3c(N4CCOC[C@@H]4C)nc(N4CCOC[C@@H]4C)nc3n2)cc1CO [AZD-8055]
5.94: [13]
5.86: [42]
6.85: [3]
6.12: [17] | [21]
7.47: [8]
6.05: [29]
6.11: [45]
6.54: [20]
< 5.70: [5] | [6] | [7] | [14] | [15] | [16] | [18] | [22] | [25] | [33] | [34] | [35] | [37] | [40] | [46] | [48]
6.09: [32] | [41]
6.01: [39]
5.96: [2]
5.80: [26]
6.77: [28]
6.25: [9]
5.89: [38]
6.15: [36]
6.20: [27]
6.21: [10]
6.08: [24]
7.26: [19]
7.10: [43]
5.82: [44]
5.85: [47]
5.88: [4] | [23] | [31]
5.76: [12]
6.39: [11]
6.83: [1]
6.36: [30]

COc1ccc(C2=N[C@@H](c3ccc(Cl)cc3)[C@@H](c3ccc(Cl)cc3)N2C(=O)N2CCNC(=O)C2)c(OC(C)C)c1 [NUTLIN-3]
5.45: [1]
5.17: [42]
5.26: [11]
< 5.10: [49] | [2] | [3] | [4] | [5] | [6] | [7] | [8] | [9] | [12] | [13] | [50] | [14] | [15] | [16] | [17] | [18] | [19] | [21] | [22] | [23] | [24] | [25] | [26] | [28] | [29] | [30] | [31] | [32] | [33] | [34] | [35] | [36] | [37] | [38] | [39] | [40] | [41] | [43] | [44] | [45] | [46] | [47] | [48]
5.19: [27]
5.51: [10] | [20]

Cn1cc(C2=C(c3ccc(Cl)cc3Cl)C(=O)NC2=O)c2ccccc21 [SB-216763]
< 5.00: [1] | [49] | [51] | [52] | [2] | [3] | [4] | [53] | [6] | [7] | [8] | [9] | [10] | [11] | [12] | [13] | [50] | [14] | [15] | [16] | [17] | [18] | [19] | [20] | [21] | [22] | [23] | [24] | [25] | [26] | [27] | [28] | [29] | [30] | [31] | [32] | [33] | [34] | [36] | [37] | [38] | [39] | [40] | [41] | [42] | [43] | [44] | [45] | [46] | [47] | [48]
